Data on two compounds can be found in US8840873B2, “Method of treating second and third degree burns using oxidative reductive potential water solution” (priority 2005, dated 2014).

For data set [1], the system named is human diploid fibroblasts (HDFs). Briefly: Cell viability, apoptosis and necrosis in HDFs by flow cytometry. The settings on record: for apoptosis (Annexin-V): 880 mM HP; for necrosis (cells incorporating propidium iodide) / Cell viability (7AAD): pure ORP water solution or 880 mM HP.
For data set [2] the test system is unchanged. Briefly: 8-OHdG DNA adducts in HDFs (ELISA). As to conditions: HP 500 μM. In general terms: ELISA stands for enzyme-linked immunosorbent assay.
Data set [3] concerns primary HDF cultures. Briefly: SA-β-galactosidase expression in HDFs after chronic exposure. As to conditions: 20 population doublings (one month), ORP water solution 10% or HP 5 μM. It is filed as cell-based, human. An excerpt:
The results are depicted in FIG. 6.

Data set [4] concerns murine polychromatic erythrocytes (bone marrow). As to conditions: mice; for PCE/NCE ratio: intraperitoneal, cyclophosphamide 8 mg/mL, 12.5 ml/kg on day 2. As for the experimental part:
The mammalian in vivo micronucleus test is used for the identification of substances which cause damage to chromosomes or the mitotic apparatus of murine polychromatic erythrocytes. This damage results in the formation of “micronuclei,” intracellular structures containing lagging chromosome fragments or isolated whole chromosomes. […] The positive control mice received a single intraperitoneal injection of cyclophosphamide (8 mg/mL, 12.5 ml/kg) on day 2. All mice were observed immediately after injection for any adverse reactions. […] On day 3, all mice were weighed and terminated.
The femurs were excised from the terminated mice, the bone marrow was extracted, and duplicate smear preparations were performed for each mouse. The bone marrow slides for each animal were read at 40× magnification. The ratio of polychromatic erythrocytes (PCE) to normochromatic erythrocytes (NCE), an index of bone marrow toxicity, was determined for each mouse by counting a total of at least 200 erythrocytes. Then a minimum of 2000 scoreable PCE per mouse were evaluated for the incidence of micronucleated polychromatic erythrocytes. Statistical analysis of the data were done using the Mann and Whitney test (at 5% risk threshold) from a statistical software package (Statview 5.0, SAS Institute Inc., USA).

Structures are written as SMILES. Where two headings read alike, the source gives them in different places.

Consider `OO` [HP, hydrogen peroxide], for which the “apoptosis (Annexin-V)” value in data set [1] (5 min exposure) came out at 15%; in data set [1] (30 min exposure), 20%. Also, the figures for the “necrosis (cells incorporating propidium iodide)” value in data set [1] (5 min exposure) and in data set [1] (30 min exposure) were 20% and 75%, respectively. Moreover, the “Cell viability (7AAD)” value in data set [1] (5 minute exposure) stood at 55%; in data set [1] (30 min exposure), 5%. The “8-OHdG adducts relative to control-treated cells” value in data set [2] (30 minutes treatment then 3 hour recovery in supplemented DMEM) is reported as “about 5 times”; in data set [2] (30 minutes treatment, DNA extracted right after exposure), “about 25 fold”. Besides, in data set [3], the “cells expressing SA-β-Gal” value was 86%.
Turning to `O=P1(N(CCCl)CCCl)NCCCO1` (stereo not drawn) [cyclophosphamide], the PCE/NCE ratio in data set [4] (females) came to 0.73; in data set [4] (males) it was 0.77. For the same compound, the “number of polychromatic erythrocytes bearing micronuclei” value in data set [4] (males, intraperitoneal 12.5 ml/kg) stood at 11.0.
